From patent US20210387978A1, “CYCLOBUTYL DIHYDROQUINOLINE SULFONAMIDE COMPOUNDS” (AMGEN INC., priority 2020, published 2021)

Target: T1, Human Nav1.7 (Homo sapiens, UniProt Q15858)
T1 construct: expressed in transfected cells; host or cells: Spiking HEK cells (without Kir2.1 transfection)
Experiment: IonWorks Barracuda (IWB) automated patch clamp assay
Type: cell-based
Details: human Nav1.7 currents, HEK cells, population patch-clamp, state- and use-dependent voltage protocol; read-out: hNaV1.7 IWB-U IC50
Description: Ionaworks Barracuda […] Automated Patch Clamp Assay (Same Protocol for Both Human and Mouse)
Human Nav1.7 currents were recorded in population patch-clamp mode with the IWB automated electrophysiology system (Molecular Devices, LLC, Sunnyvale, Calif.). Spiking HEK cells (without Kir2.1 transfection) were cultured and prepared for recordings as previously described for IonWorks Quattro testing^1. The external solution consisted of the following (in mM): NaCl 140, KCl 5, CaCl2 2, MgCl2 1, HEPES 10, and glucose 11, pH 7.4, with N-methyl-D-glucamine at 320 mOsmol. […] From a holding potential of −110 mV, currents were elicited by a train of 26 depolarizations of 150 ms duration to −20 mV at a frequency of 5 Hz. Cells were then clamped to −20 mV for a period of 4 minutes in the presence of a single concentration of test compound. Following this compound incubation period, cells were clamped to −110 mV for three seconds to recover unbound channels and put through the same 26 pulse voltage protocol as above. Peak inward current during the 26th pulse to −20 mV in the presence of compound was divided by the peak inward current evoked by the 26th pulse to −20 mV in the absence of compound to determine percent inhibition. Concentration-response curves of percent inhibition as a function of concentration were generated to calculate IC50 values as described in Kornecook, T. J.; Yin, R.; Altmann, S.; et al. Pharmacologic Characterization of AMG8379, a Potent and Selective Small Molecule Sulfonamide Antagonist of the Voltage-Gated Sodium Channel NaV1. 7.
The potency of the compounds of the present invention were evaluated on human Nav1.7 channels using the above described IonWorks Barracuda automated electrophysiology platform that evaluates the ability of compounds to block sodium conductance through Nav1.7 channels. A voltage-protocol that prosecutes both state-dependent as well as use-dependent inhibition was used as these modes of action are thought to be more relevant for the native state of Nav1.7 channels in pain sensing neurons in vivo.

T1 sequence (Q15858 whole entry): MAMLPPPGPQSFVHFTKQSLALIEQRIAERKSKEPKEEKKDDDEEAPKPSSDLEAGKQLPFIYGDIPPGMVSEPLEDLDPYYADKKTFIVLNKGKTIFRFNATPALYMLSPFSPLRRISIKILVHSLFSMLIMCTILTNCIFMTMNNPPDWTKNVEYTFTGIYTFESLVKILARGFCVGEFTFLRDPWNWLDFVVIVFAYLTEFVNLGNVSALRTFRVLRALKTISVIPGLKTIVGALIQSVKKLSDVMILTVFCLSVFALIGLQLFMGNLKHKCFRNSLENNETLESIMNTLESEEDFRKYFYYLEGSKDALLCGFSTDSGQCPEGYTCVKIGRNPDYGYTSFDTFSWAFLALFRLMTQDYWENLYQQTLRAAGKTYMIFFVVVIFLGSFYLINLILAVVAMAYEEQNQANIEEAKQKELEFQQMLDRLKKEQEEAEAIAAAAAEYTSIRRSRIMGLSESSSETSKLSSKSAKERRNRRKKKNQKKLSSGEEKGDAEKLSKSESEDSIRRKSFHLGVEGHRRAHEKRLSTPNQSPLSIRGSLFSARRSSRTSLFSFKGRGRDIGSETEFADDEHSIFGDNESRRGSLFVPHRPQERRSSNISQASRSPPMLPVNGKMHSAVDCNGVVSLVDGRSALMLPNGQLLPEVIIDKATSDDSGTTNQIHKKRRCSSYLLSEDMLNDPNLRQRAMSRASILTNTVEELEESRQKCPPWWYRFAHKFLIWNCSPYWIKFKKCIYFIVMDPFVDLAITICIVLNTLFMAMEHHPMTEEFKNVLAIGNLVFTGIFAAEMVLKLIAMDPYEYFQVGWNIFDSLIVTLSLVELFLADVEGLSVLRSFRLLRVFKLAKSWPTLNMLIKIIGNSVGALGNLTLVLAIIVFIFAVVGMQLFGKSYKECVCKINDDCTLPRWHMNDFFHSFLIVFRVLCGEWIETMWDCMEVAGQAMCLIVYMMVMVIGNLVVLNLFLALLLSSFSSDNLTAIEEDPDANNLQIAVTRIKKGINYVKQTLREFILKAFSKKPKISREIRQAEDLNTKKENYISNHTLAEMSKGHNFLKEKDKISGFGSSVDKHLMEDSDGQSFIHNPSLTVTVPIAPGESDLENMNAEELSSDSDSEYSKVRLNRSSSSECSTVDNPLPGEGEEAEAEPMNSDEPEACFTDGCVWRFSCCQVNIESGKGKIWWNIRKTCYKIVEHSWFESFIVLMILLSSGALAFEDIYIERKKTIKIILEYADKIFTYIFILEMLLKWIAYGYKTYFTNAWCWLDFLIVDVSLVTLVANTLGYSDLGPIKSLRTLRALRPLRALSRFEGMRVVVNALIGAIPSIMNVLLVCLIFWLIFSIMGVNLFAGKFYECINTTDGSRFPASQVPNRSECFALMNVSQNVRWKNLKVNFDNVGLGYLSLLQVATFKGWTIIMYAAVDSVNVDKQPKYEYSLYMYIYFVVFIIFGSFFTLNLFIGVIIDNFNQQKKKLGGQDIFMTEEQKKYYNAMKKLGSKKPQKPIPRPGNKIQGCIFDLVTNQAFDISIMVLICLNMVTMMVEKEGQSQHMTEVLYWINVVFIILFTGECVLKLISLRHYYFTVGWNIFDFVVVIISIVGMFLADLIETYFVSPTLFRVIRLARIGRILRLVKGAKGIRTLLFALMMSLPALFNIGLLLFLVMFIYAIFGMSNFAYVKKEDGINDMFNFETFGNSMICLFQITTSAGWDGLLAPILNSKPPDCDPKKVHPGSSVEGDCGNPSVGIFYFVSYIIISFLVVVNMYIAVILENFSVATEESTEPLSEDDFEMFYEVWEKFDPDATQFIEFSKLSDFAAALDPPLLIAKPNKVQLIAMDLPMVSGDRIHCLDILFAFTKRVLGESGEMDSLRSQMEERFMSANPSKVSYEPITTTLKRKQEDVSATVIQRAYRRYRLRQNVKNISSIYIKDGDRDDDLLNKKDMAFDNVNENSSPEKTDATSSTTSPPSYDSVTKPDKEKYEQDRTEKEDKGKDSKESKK

Row | IC50 [nM] | Structure (SMILES)
1 | 22 | COc1cc(C2CCC2)c(Cl)cc1-n1c(=O)ccc2cc(S(=O)(=O)Nc3ncccn3)ccc21 (atropisomer, axis not shown; (P)) [Example 18, (P)-1-(5-chloro-4-cyclobutyl-2-methoxyphenyl)-2-oxo-N-(pyrimidin-2-yl)-1,2-dihydroquinoline-6-sulfonamide]
2 | 15 | COc1cc([C@H]2C[C@H](C(F)(F)F)C2)c(Cl)cc1-n1c(=O)ccc2cc(S(=O)(=O)Nc3cccnn3)ccc21 (atropisomer, axis not shown; (P)) [Example 19, trans-(P)-1-(5-chloro-2-methoxy-4-(3-(trifluoromethyl)cyclobutyl)phenyl)-2-oxo-N-(pyridazin-3-yl)-1,2-dihydroquinoline-6-sulfonamide]
3 | 12 | COc1cc([C@H]2C[C@H](C(F)(F)F)C2)c(C)cc1-n1c(=O)ccc2cc(S(=O)(=O)Nc3ccon3)ccc21 (atropisomer, axis not shown; (P)) [Example 20, trans-(P)—N-(isoxazol-3-yl)-1-(2-methoxy-5-methyl-4-(3-(trifluoromethyl)cyclobutyl)phenyl)-2-oxo-1,2-dihydroquinoline-6-sulfonamide]
4 | 12 | COc1cc(C2CCC2)c(Cl)cc1-n1c(=O)ccc2cc(S(=O)(=O)Nc3ccon3)ccc21 (atropisomer, axis not shown; (P)) [Example 21, (P)-1-(5-chloro-4-cyclobutyl-2-methoxyphenyl)-N-(isoxazol-3-yl)-2-oxo-1,2-dihydroquinoline-6-sulfonamide]
5 | 50 | COc1cc(C2CCC2)c(C)cc1-n1c(=O)ccc2cc(S(=O)(=O)Nc3ccon3)ccc21 (atropisomer, axis not shown; (P)) [Example 22, (P)-1-(4-cyclobutyl-2-methoxy-5-methylphenyl)-N-(isoxazol-3-yl)-2-oxo-1,2-dihydroquinoline-6-sulfonamide]
6 | 102 | COc1cc(C2CCC2)c(F)cc1-n1c(=O)ccc2cc(S(=O)(=O)Nc3cccnn3)ccc21 (atropisomer, axis not shown; (P)) [Example 23, (P)-1-(4-cyclobutyl-5-fluoro-2-methoxyphenyl)-2-oxo-N-(pyridazin-3-yl)-1,2-dihydroquinoline-6-sulfonamide]
7 | 13 | COc1cc(C2CCC2)c(F)cc1-n1c(=O)ccc2cc(S(=O)(=O)Nc3ncco3)ccc21 (atropisomer, axis not shown; (P)) [Example 24, (P)-1-(4-cyclobutyl-5-fluoro-2-methoxyphenyl)-N-(oxazol-2-yl)-2-oxo-1,2-dihydroquinoline-6-sulfonamide]
8 | 37 | COc1cc(C2CCC2)ccc1-n1c(=O)ccc2cc(S(=O)(=O)Nc3ccon3)ccc21 (atropisomer, axis not shown; (P)) [Example 25, (P)-1-(4-cyclobutyl-2-methoxyphenyl)-N-(isoxazol-3-yl)-2-oxo-1,2-dihydroquinoline-6-sulfonamide]
9 | 80 | COc1cc(C2CCC2)ccc1-n1c(=O)ccc2cc(S(=O)(=O)Nc3ncccn3)ccc21 (atropisomer, axis not shown; (P)) [Example 26, (P)-1-(4-cyclobutyl-2-methoxyphenyl)-2-oxo-N-(pyrimidin-2-yl)-1,2-dihydroquinoline-6-sulfonamide]
10 | 104 | COc1cc(C2CCC2)c(C)cc1-n1c(=O)ccc2cc(S(=O)(=O)Nc3ncccn3)ccc21 (atropisomer, axis not shown; (P)) [Example 27, (P)-1-(4-Cyclobutyl-2-Methoxy-5-Methylphenyl)-2-Oxo-N-(Pyrimidin-2-Yl)-1,2-Dihydro Quinoline-6-Sulfonamide]
11 | 54 | COc1cc(C2CCC2)c(F)cc1-n1c(=O)ccc2cc(S(=O)(=O)Nc3ncccn3)ccc21 (atropisomer, axis not shown; (P)) [Example 28, (P)-1-(4-cyclobutyl-5-fluoro-2-methoxyphenyl)-2-oxo-N-(pyrimidin-2-yl)-1,2-dihydroquinoline-6-sulfonamide]
12 | 37 | COc1cc(C2CCC2)ccc1-n1c(=O)ccc2cc(S(=O)(=O)Nc3ncco3)ccc21 (atropisomer, axis not shown; (P)) [Example 29, (P)-1-(4-cyclobutyl-2-methoxyphenyl)-N-(oxazol-2-yl)-2-oxo-1,2-dihydroquinoline-6-sulfonamide]
13 | 137 | COc1cc(C2CCC2)c(C)cc1-n1c(=O)ccc2cc(S(=O)(=O)Nc3cccnn3)ccc21 (atropisomer, axis not shown; (P)) [Example 30, (P)-1-(4-cyclobutyl-2-methoxy-5-methylphenyl)-2-oxo-N-(pyridazin-3-yl)-1,2-dihydroquinoline-6-sulfonamide]
14 | 28 | COc1cc(C2CCC2)c(C)cc1-n1c(=O)ccc2cc(S(=O)(=O)Nc3ncco3)ccc21 (atropisomer, axis not shown; (P)) [Example 34, (P)-1-(4-cyclobutyl-2-methoxy-5-methylphenyl)-N-(oxazol-2-yl)-2-oxo-1,2-dihydroquinoline-6-sulfonamide]
15 | 20 | COc1cc([C@H]2C[C@H](C(F)(F)F)C2)ccc1-n1c(=O)ccc2cc(S(=O)(=O)Nc3ccon3)ccc21 (atropisomer, axis not shown; (P)) [Example 35, trans-(P)—N-(isoxazol-3-yl)-1-(2-methoxy-4-(3-(trifluoromethyl)cyclobutyl)phenyl)-2-oxo-1,2-dihydroquinoline-6-sulfonamide]
16 | 14 | COc1cc([C@H]2C[C@H](C(F)(F)F)C2)ccc1-n1c(=O)ccc2cc(S(=O)(=O)Nc3ncccn3)ccc21 (atropisomer, axis not shown; (P)) [Example 36, trans-(P)-1-(2-methoxy-4-((1R,3R)-3-(trifluoromethyl)cyclobutyl)phenyl)-2-oxo-N-(pyrimidin-2-yl)-1,2-dihydroquinoline-6-sulfonamide]
17 | 21 | COc1cc([C@H]2C[C@H](C(F)(F)F)C2)ccc1-n1c(=O)ccc2cc(S(=O)(=O)Nc3cccnn3)ccc21 (atropisomer, axis not shown; (P)) [Example 38, trans-(P)-1-(2-methoxy-4-(3-(trifluoromethyl)cyclobutyl)phenyl)-2-oxo-N-(pyridazin-3-yl)-1,2-dihydroquinoline-6-sulfonamide]
18 | 11 | COc1cc([C@H]2C[C@H](C(F)(F)F)C2)c(F)cc1-n1c(=O)ccc2cc(S(=O)(=O)Nc3cccnn3)ccc21 (atropisomer, axis not shown; (P)) [Example 39, trans-(P)-1-(5-fluoro-2-methoxy-4-(3-(trifluoromethyl)cyclobutyl)phenyl)-2-oxo-N-(pyridazin-3-yl)-1,2-dihydroquinoline-6-sulfonamide]
19 | 5 | COc1cc([C@H]2C[C@H](C(F)(F)F)C2)c(F)cc1-n1c(=O)ccc2cc(S(=O)(=O)Nc3ccon3)c(F)cc21 (atropisomer, axis not shown; (P)) [Example 40, (P)-7-fluoro-1-(5-fluoro-2-methoxy-4-((1R,3R)-3-(trifluoromethyl)cyclobutyl)phenyl)-N-(isoxazol-3-yl)-2-oxo-1,2-dihydroquinoline-6-sulfonamide]
20 | 11 | COc1cc(C2CC(F)(F)C2)c(F)cc1-n1c(=O)ccc2cc(S(=O)(=O)Nc3ccon3)c(F)cc21 (atropisomer, axis not shown; (P)) [Example 41, (P)-1-(4-(3,3-difluorocyclobutyl)-5-fluoro-2-methoxyphenyl)-7-fluoro-N-(isoxazol-3-yl)-2-oxo-1,2-dihydroquinoline-6-sulfonamide]
21 | 6 | COc1cc(C23CC(C(F)(F)F)(C2)C3)c(F)cc1-n1c(=O)ccc2cc(S(=O)(=O)Nc3ccon3)ccc21 (atropisomer, axis not shown; (P)) [Example 42, (P)-1-(5-fluoro-2-methoxy-4-(3-(trifluoromethyl)bicyclo[1.1.1]pentan-1-yl)phenyl)-N-(isoxazol-3-yl)-2-oxo-1,2-dihydroquinoline-6-sulfonamide]
22 | 7 | COc1cc([C@H]2C[C@H](C(F)(F)F)C2)c(F)cc1-n1c(=O)ccc2cc(S(=O)(=O)Nc3ncco3)ccc21 (atropisomer, axis not shown; (P)) [Example 43, Trans-(P)-1-(5-Fluoro-2-Methoxy-4-(3-(Trifluoromethyl)Cyclobutyl)Phenyl)-N-(Oxazol-2-Yl)-2-Oxo-1,2-Dihydroquinoline-6-Sulfonamide]
23 | 8 | COc1cc(C23CC(C(F)(F)F)(C2)C3)c(F)cc1-n1c(=O)ccc2cc(S(=O)(=O)Nc3ncccn3)ccc21 (atropisomer, axis not shown; (P)) [Example 47, (P)-1-(5-fluoro-2-methoxy-4-(3-(trifluoromethyl)bicyclo[1.1.1]pentan-1-yl)phenyl)-2-oxo-N-(pyrimidin-2-yl)-1,2-dihydroquinoline-6-sulfonamide]
